Experiments:
Assay type in all cases: in vivo
[1] = test system: dandelion (Taraxacum officinale); test: Example 11 field test, dandelion in lawn
Method: Killex® (Green Cross, Ontario, Canada) is a commonly used selective lawn herbicide and was included in several field tests as a standard. Killex contains 2,4-D (9.5%), mecoprop (5%) and dicamba (0.9%). The product was diluted 6 ml into 1 L of water solution and applied at rate of 200 ml/m^2, as per label instructions.
(§1) This test investigated the effect of FeHEDTA and a mixture of FeEDDS and FeMGDA on daisy (Bellis perennis), dandelion (Taraxacum officinale) and a turf bentgrass (Agrostis sp.). The chelating agents were used at one and a half times the molar amount of iron. The FeHEDTA solutions contained 0.2% iron (35.8 mM). The commercially prepared FeHEDTA product from the Monterey Chemical Company (CA, USA) was used as a standard. The (FeEDDS+FeMGDA) solutions contained 0.4% iron (71.6 mM) and the same molar amount of EDDS and MGDA. The solutions were made from NaEDDS (Octaquest E30, Octel) and NaMGDA (Trilon M liquid, BASF, Germany). Ammonium sulfate was added at a concentration of 1%. Killex (Solaris ON, Canada) was diluted and applied as per label instructions of 6 ml/L applied at 200 ml/m^2.
(§2) The daisy (0.25 m^2) and dandelion (0.5 m^2) test plots were in different areas of the bentgrass field. The dandelions were large, averaging 30 cm in diameter. The daisy patches were between 10 and 20 cm in diameter. The plants were sprayed weekly 4 times.

[2] = test system: turf bentgrass (Agrostis sp.); test: Example 11 field test, blackening of bentgrass leaf tips
Method: The product was diluted 6 ml into 1 L of water solution and applied at rate of 200 ml/m^2, as per label instructions.
as §1, with “The FeHEDTA solutions contained 0.2% iron (35.8 mM).” left out, “The (FeEDDS+FeMGDA) solutions contained 0.4% iron (71.6 mM) and the same molar amount of EDDS and MGDA.” left out
as §2

[3] = test system: dandelion (Taraxacum officinale); test: Example 12 FeHEDTA field test, dandelion; conditions: for Survival of Dandelion Plants (%): day 7/day 0
Method: This test evaluated FeHEDTA with 0.15% and 0.2% Fe for controlling the chickweed scarlet pimpernel (Anagallis arvensis) and dandelion (Taraxacum officinale). The solution contained 1.3 times the molar amount of chelating agent as iron. Field areas of well established chickweed and dandelion (0.5 m^2) were sprayed at a rate of 100 ml/m^2.

perennial ryegrass [4] = test: Example 17 iron chelates with Killex, perennial ryegrass
Method: (§3) Plants were fertilized with an all purpose water-soluble fertilizer mix of 20-20-20 (N-P-K; Plant-Prod®) as needed. All broadleaf weeds were grown individually in a 2¼-inch pot until they were a suitable size for herbicide tests (actual weed size is reported in examples below). Perennial ryegrass was also grown in 2¼-inch pots, however many grass seeds were sown in the pot to simulate a small section of turf. Grass plants were continually trimmed to a height of 4 cm, simulating that of a homeowner's lawn. For field tests, plots ¼ m^2 in size were marked out in areas containing the targeted broadleaf weed species growing in turf grass. Plots were continually mowed to simulate a homeowner's lawn. […] In all of the examples, the amounts of the various herbicide components are identified as a percent on a weight basis.
(§4) Killex® (Scotts Canada, Ltd., Ontario, Canada) is a commonly used selective lawn herbicide and was used as the commercial herbicide for herbicide combinations. The labeled dilution and application rates for Killex® are 6 ml into 1 L of solution (0.6%) applied at 200 ml/m^2.
(§5) All visual plant damage assessments were made using a quantitative rating scale; percent control relative to the untreated check (0=no effect; 100=plant death).
Materials and Methods: This trial was conducted in the greenhouse. Nine pots of white clover and 10 pots of perennial ryegrass were selected for each treatment. Herbicidal solutions were prepared using deionized water. The treatments were applied using a handheld trigger sprayer at 200 ml/m^2. All treatments were applied once. Phytotoxicity (%) was assessed 4, 7, and 14 days after application (A4, A7, and A14).

perennial ryegrass [5] = test: Example 18 FeHEDTA with Killex, perennial ryegrass
Method: as §3, §4, §5
Materials and Methods: This trial was conducted in the greenhouse. Nine pots of white clover and 10 pots of perennial ryegrass were selected for each treatment. Herbicide solutions were prepared using deionized water. The treatments were applied using a hand-trigger sprayer at 200 ml/m^2. All treatments were applied once. Phytotoxicity (%) was assessed 4, 7, and 14 days after application (A4, A7, and A14).

perennial ryegrass [6] = test: Example 21 Fe chelates with Killex, perennial ryegrass; conditions: A29 = 29 days after treatment
Method: as §3, §4, §5
Materials and Methods: This trial was conducted in the greenhouse. […] Phytotoxicity (%) was assessed 29 days after treatment (A29).

white clover = test: Example 22 field test FeIDS and/or FeHEDTA with Killex, white clover; conditions: A7 = 7 days after treatment
Method: as §3, with “basis. […]” for “basis.”
as §5
Materials and Methods: Plots ¼ m^2 in size were marked out in white clover and Park Lawn (turfgrass mixture comprising of 65% perennial ryegrass, 25% chewings/creeping red fescue and 10% Kentucky bluegrass) area in the field. […] Phytotoxicity (%) was assessed on 7 days after treatment (A7).

O=C([O-])CN(CCO)CCN(CC(=O)[O-])CC(=O)[O-].[Fe+3] [FeHEDTA]
Plot Area Covered by Dandelion Plants (%) ([1]; day 0 (start of test)): 80% | Dandelion Necrosis (%) ([1]; day 2): 95% | Dandelion Necrosis (%) ([1]; day 9): 98% | Plot Area Covered by Dandelion Plants (%) ([1]; day 13, sprayed weekly 4 times): 5% | Dandelion Necrosis (%) ([1]; day 16): 97% | Plot Area Covered by Dandelion Plants (%) ([1]; day 21): 10% | Dandelion Necrosis (%) ([1]; day 23): 97% | Plot Area Covered by Dandelion Plants (%) ([1]; day 26): 8% | Blackening of Bentgrass (Agrostis) Leaf Tips (0 to 9) ([2]; day 1): 0 | Blackening of Bentgrass (Agrostis) Leaf Tips (0 to 9) ([2]; day 6): 0 | Blackening of Bentgrass (Agrostis) Leaf Tips (0 to 9) ([2]; day 9): 0 | Blackening of Bentgrass (Agrostis) Leaf Tips (0 to 9) ([2]; day 16): 2 | Blackening of Bentgrass (Agrostis) Leaf Tips (0 to 9) ([2]; day 21): 0.5 0 to 9 | Blackening of Bentgrass (Agrostis) Leaf Tips (0 to 9) ([2]; day 23): 0 | Blackening of Bentgrass (Agrostis) Leaf Tips (0 to 9) ([2]; day 30): 0 | Dandelion Plants (#/0.5 m^2) ([3]; 7 days after spraying, listed as FeHEDTA (0.15% Fe)): 19 #/0.5 m^2 | Dandelion Plants (#/0.5 m^2) ([3]; 7 days after spraying, listed as FeHEDTA (0.20% Fe)): 24 #/0.5 m^2 | numbers of dandelions, in words ([3]; Example 12, text): significantly reduced | Dandelion Plants (#/0.5 m^2) ([3]; day 0, listed as FeHEDTA (0.15% Fe)): 57 #/0.5 m^2 | Dandelion Plants (#/0.5 m^2) ([3]; day 0, listed as FeHEDTA (0.20% Fe)): 84 #/0.5 m^2 | Survival of Dandelion Plants (%) ([3]; listed as FeHEDTA (0.15% Fe)): 33% | Survival of Dandelion Plants (%) ([3]; listed as FeHEDTA (0.20% Fe)): 29% | Phytotoxicity (%) against perennial ryegrass (perennial ryegrass [4]; A4): 8% | Phytotoxicity (%) against perennial ryegrass (perennial ryegrass [4]; A7): 7% | Phytotoxicity (%) against perennial ryegrass (perennial ryegrass [4]; A14): 1% | Phytotoxicity (%) on perennial ryegrass (perennial ryegrass [5]; A4): 2% | Phytotoxicity (%) on perennial ryegrass (perennial ryegrass [5]; A7): 1% | Phytotoxicity (%) on perennial ryegrass (perennial ryegrass [5]; A14): 2% | Phytotoxicity (%) on perennial ryegrass (perennial ryegrass [6]): 0% | Phytotoxicity (%) against white clover (white clover): 48%
